From publication PMC12557438, “Thiadiazino-indole, thiadiazino-carbazole and benzothiadiazino-carbazole dioxides: synthesis, physicochemical and early ADME characterization of representatives of new tri-, tetra- and pentacyclic ring systems and their intermediates” (Beilstein Journal of Organic Chemistry, 2025)
≈ marks a conversion by molar mass, not a printed value. Where two headings read alike, the source gives them in different places.

Legend:
[1] = Determination of the capacity factor (logk) by RP-HPLC; format: physicochemical; conditions: reversed-phase chromatographic capacity factor, eluent pH 7.0
Protocol: Determination of the capacity factor. […] The same analytical method was used with modified eluents: eluent A was 20 mM triethylamine with phosphoric acid (pH 7.0), and eluent B was acetonitrile without additives. The method time was slightly extended, with a 1-minute longer gradient, resulting in an 8-minute program. The capacity factor was calculated with Equation 3: […]
where k is the capacity factor, tR is the retention time (min) of the compounds and t0 is the dead-time of the column (min).

[2] = In vitro gastrointestinal permeability assay (GI PAMPA); format: in vitro ADME; conditions: for GI PAMPA membrane retention / GI PAMPA penetration: donor pH 6.5, acceptor pH 7.4, 1% DMSO, 37 °C, 4 hours, mean of 3 replicates; for GI PAMPA permeability in words / GI PAMPA membrane retention (MR) in words: wording of the text, outside the class key; for Papp at 4 h, 100 µM: PAMPA
Protocol: In vitro gastrointestinal permeability assay. […] The artificial membrane was fabricated by dissolving ʟ-α-phosphatidylcholine (16 mg) and cholesterol (4 mg) in a solvent mixture of chloroform, hexane and dodecane (5/70/25 vol %). Each well of the PAMPA donor plate (MAIPNTR, PVDF membrane, Merck KGaA, Darmstadt, Germany) was coated with 5 μL lipid solution. Thereafter the donor plate was fitted into the acceptor plate (MSSACCEPTOR, Merck KGaA, Darmstadt, Germany) already containing 300 μL PBS (pH 7.4) solutions with 1% DMSO. Finally, 150 μL of the initial solutions was pipetted into the donor plate, the plate sandwich was covered with a wet paper tissue and with a plate lid to avoid evaporation, and the system was incubated at 37 °C for 4 hours. Then samples were taken from the donor and acceptor wells and analyzed along with the initial solutions by HPLC.
[1] Pe=−2.303/A⋅(t−τss)⋅(1/1+ra)⋅lg[−ra+(1+ra/1−MR)⋅cD(t)/cD(0)]
[2] MR=1−cD(t)/cD(0)−VAcA(t)/VDcD(0)
where A is the filter area (0.24 cm^2), t is the incubation time (s), τss is the time to reach steady-state (s), ra is the sink asymmetry ratio approximated with a value of 10^−14, VD and VA are the volumes in the donor (0.15 mL) and the acceptor phase (0.3 mL), cD(t) is the concentration of the compound in the donor phase at time point t (mol/L), cD(0) is the concentration of the compound in the donor phase at time point zero (initial solutions, mol/L), cA(t) is the concentration of the compound in the acceptor phase at time point t (mol/L), cA(0) is the concentration of the compound in the acceptor phase at time point zero (mol/L).
(§1) Analytical methods. […] For a 7-minute long gradient program, eluents A (0.1% formic acid in water) and B (0.1% formic acid in acetonitrile) were used as follows: initial conditions with 30% B were kept for 1 minute, then 90% B was achieved within 3 minutes, kept for further 1 minute, finally the initial condition was adjusted and equilibrated for further 2 minutes. 5-Point calibration series were measured from each compound resulting in R^2 ≈ 0.9990–0.9999.

[3] = Kinetic aqueous solubility assay; format: physicochemical; design: key to Kinetic solubility (no value): –: Compounds with no value were under the detection limit; conditions: for Kinetic solubility in words: wording of the text, outside the class key; for solubility kinetic at 2 h: PBS buffer, pH 6.5, aqueous buffer, kinetic from dmso stock; for Kinetic solubility (no value): PBS pH 6.5, 2 hours, dash = under the detection limit
Protocol: Kinetic aqueous solubility assay. All compounds were dissolved in DMSO to make stock solutions at 10 mM concentration. […] 5 μL of the stock solutions was pipetted into a 96-well plate containing 495 μL PBS (pH 6.5) in each well to achieve 100 μM target concentration (1% DMSO). […] The plate was then sealed and shaken for 2 hours at room temperature. Each compound was investigated in 3 replicates. After 2 hours, the samples were filtered on a MultriscreenHTS filter plate (MSSLBPC, polycarbonate membrane, Merck KGaA, Darmstadt, Germany) by a Millipore Vacuum Manifold (Merck KGaA, Darmstadt, Germany). Before analyzing, 20 vol % acetonitrile was added to each well to avoid sample precipitation during HPLC analysis.
as §1

[4] = Metabolic stability assay in human liver microsome fractions; format: in vitro ADME; conditions: NADPH, 37 °C; for CLint scaled at 10 µM / half-life at 10 µM: pH 7.4, pooled human liver microsomes; for CLint scaled at 10 µM: read-out: HLM Clint (converted); for half-life at 10 µM: read-out: HLM t1/2
Protocol: Metabolic stability assay in human liver microsome fractions. The metabolic stability of the test compounds was assessed in vitro using pooled liver microsome fractions derived from humans (Xenotech LLC). The assay was conducted in a 96-well plate format according to a standardized protocol, utilizing cofactor-supplemented incubation systems, mainly to mimic phase I oxidative metabolic pathways. Human liver microsome (HLM) fractions were thawed on ice and diluted in 0.05 M potassium phosphate buffer (pH 7.4) to a final protein concentration of 1.25 mg/mL. Test compounds were dissolved in DMSO to create stock solutions of 5 mM. The drug concentration in the final assays was 10 μM. The assay was performed in triplicate. Reaction mixtures containing the diluted HLM fractions and test compounds were pre-incubated for 5 minutes at 37 °C while shaking at 450 rpm. The reaction was initiated by adding the 0.05 M NADPH cofactor mixture to the wells (100 µL per well) for the “with cofactors” conditions or by adding phosphate buffer for the “without cofactors” control. Aliquots (100 µL) were taken at zero time and at pre-defined time points of 30 and 60 minutes and quenched with an equal volume of cold acetonitrile. The samples were centrifuged at 2600 RCF for 10 minutes to pellet proteins. Supernatants were transferred to LC vials and stored at −20 °C until LC–MS/MS analysis. The concentration of the parent compound remaining in each sample was determined using liquid chromatography coupled with tandem mass spectrometry (LC–MS/MS). The percentage of the remaining substrate was calculated relative to the time-zero sample. The natural logarithm of the percentage remaining was plotted against incubation time to determine the first-order elimination rate constant (k) using linear regression. The half-life (t₁/₂) was calculated using Equation 4: […]
Intrinsic clearance (Clint) was calculated and scaled to in vivo conditions using Equation 5:
[5] Clint=ln2/t1/2×liver weight (g)/standard body weight (kg)×incubation volume (mL)/HLM protein/well×HLM protein (mg)/gram of liver
where the HLM protein per gram of liver was equal to 25 and the liver weight per standard body was equal to 49. Testosterone was included as a positive control to confirm metabolic competence of the HLM fractions, with and without cofactors.
HPLC–MS analysis. The semi-quantitative determination of test compounds was carried out using a Waters Xevo G2-XS QToF mass spectrometer equipped with an electrospray ionization (ESI) source operating in positive ion mode. Chromatographic separation was performed on a Waters XBridgeTM Premier BEH C18 (3.5 μm, 4.6 × 150 mm) column maintained at 40 °C. The mobile phase consisted of water with 0.1% formic acid (A) and acetonitrile with 0.1% formic acid (B). The injection volume was 10 µL. The autosampler was maintained at 5 °C. The gradient elution program shown in Table 4 was applied at a constant flow rate of 1.0 mL/min.
The mass spectrometer operated in sensitivity mode with a capillary voltage of 3.0 kV, source temperature was 100 °C, and desolvation temperature was 350 °C. The cone gas flow was set to 0 L/h and desolvation gas flow to 800 L/h. LockSpray calibration was performed using leucine enkephalin as the reference compound (m/z 556.2771), introduced at 15 µL/min. Data acquisition was performed in MSE mode with alternating low collision energy (6 eV) and ramped high-energy collision dissociation (20–40 eV). The mass range was set from 50 to 1200 Da. Each function used a scan time of 0.5 s. Data were acquired in the continuum mode. Instrument mass accuracy calibration was verified using sodium formate. The system was controlled with a MassLynx v4.2 SCN996 software.

[5] = PBS pH 6.5, 100 µM target concentration (1% DMSO), 2 hours, room temperature, mean of 3 replicates
[6] = PBS pH 6.5, 100 µM target concentration (1% DMSO), 2 hours, room temperature, mean of 3 replicates, read-out: Kinetic solubility
[7] = class in words, read-out: Kinetic solubility category
[8] = class in words, read-out: GI PAMPA permeability (Pe) category
[9] = colour key of Figure 5, read-out: Permeability category (Pe), colouring of Figure 5
[10] = scaled to in vivo conditions (Equation 5)

Structure (SMILES) | logk (−) pH 7.0 [1] | GI PAMPA membrane retention [2] | GI PAMPA penetration [2] | solubility kinetic at 2 h [3, 6] | other results
CC/C(C)=N/Nc1cccc2c1S(=O)(=O)N(C)N=C2C [(E)-7a] | 0.547 | 61.0 ± 5.1% | 33.6 ± 3.0 10^−6 cm/s |  | GI PAMPA membrane retention (MR) category ([2]; class in words): moderate (moderate under 80%); GI PAMPA permeability (Pe) category ([2]; class in words): good (good above 10 × 10^−6 cm/s); Kinetic solubility [3, 5]: 20.5 ± 0.8 µM; Kinetic solubility in words [3]: moderate to good; HLM Clint ([4]; pooled human liver microsomes, 10 μM, scaled to in vivo conditions (Equation 5)): 1.2 ± 0.042 mL/h/kg; HLM t1/2 ([4]; pooled human liver microsomes, 10 μM, triplicate): 34 ± 1 min
CC1=NN(C)S(=O)(=O)c2c1ccc1c(C)c(C)[nH]c21 [Compound 3a] | 0.580 |  |  | 1.5 ± 0.09 µM (≈ 0.416 µg/mL) | 
CCc1[nH]c2c3c(ccc2c1C)C(C)=NN(C)S3(=O)=O [Compound 3b] | 0.603 | 98.5 ± 0.1% | 0.0 10^−6 cm/s | 31 ± 2.2 µM (≈ 9.03 µg/mL) | GI PAMPA membrane retention (MR) category ([2]; class in words): extremely high (extremely high above 90%); GI PAMPA permeability in words [2]: nearly zero; solubility kinetic at 2 h [3, 7]: > 30 µM
CC1=NN(C)S(=O)(=O)c2c1ccc1c(C)c[nH]c21 [Compound 3c] | 0.567 | 39.8 ± 0.2% | 30.3 ± 4.2 10^−6 cm/s | 41.4 ± 0.9 µM (≈ 10.9 µg/mL) | Papp at 4 h, 100 µM [2, 8]: > 10 ×10⁻⁶ cm/s; Papp at 4 h, 100 µM [2, 9]: > 10 ×10⁻⁶ cm/s; GI PAMPA membrane retention (MR) category ([2]; class in words): moderate (moderate under 80%); solubility kinetic at 2 h [3, 7]: > 30 µM; Kinetic solubility in words [3]: moderate to good; CLint scaled at 10 µM [4, 10]: 1.42 mL/h/kg; half-life at 10 µM ([4]; triplicate): 29 ± 2 min
CC1=NN(C)S(=O)(=O)c2c1ccc1c3c([nH]c21)CCC3 [Compound 3d] | 0.591 |  |  | 3.2 ± 0.2 µM (≈ 0.926 µg/mL) | 
CC1=NN(C)S(=O)(=O)c2c1ccc1c3c([nH]c21)CCCC3 [Compound 3e, 2,4-Dimethyl-2,7,8,9,10,11-hexahydro[1,2,3]thiadiazino[6,5-a]carbazole 1,1-dioxide] | 0.516 | 82.3 ± 0.8% | 7.1 ± 1.7 10^−6 cm/s | 51.4 ± 1.3 µM (≈ 15.6 µg/mL) | Papp at 4 h, 100 µM [2, 8]: < 10 ×10⁻⁶ cm/s; Papp at 4 h, 100 µM [2, 9]: < 10 ×10⁻⁶ cm/s; GI PAMPA membrane retention (MR) in words [2]: high; solubility kinetic at 2 h [3, 7]: > 30 µM; half-life at 10 µM ([4]; triplicate): 100 ± 23 min
Cc1[nH]c2c3c(ccc2c1C)C(c1ccccc1)=NN(C)S3(=O)=O [Compound 3f] | 0.629 |  |  | 5 ± 0.3 µM (≈ 1.7 µg/mL) | 
Cc1c[nH]c2c3c(ccc12)C(c1ccccc1)=NN(C)S3(=O)=O [Compound 3h, 2,7-Dimethyl-4-phenyl-2,9-dihydro[1,2,3]thiadiazino[5,6-g]indole 1,1-dioxide] | 0.614 |  |  | 8.6 ± 0.3 µM (≈ 2.8 µg/mL) | 
CN1N=C(c2ccccc2)c2ccc3c4c([nH]c3c2S1(=O)=O)CCC4 [Compound 3i] | 0.645 |  |  |  | Kinetic solubility [3, 5]: 1.7 ± 0.3 µM
CN1N=C(c2ccccc2)c2ccc3c4c([nH]c3c2S1(=O)=O)CCCC4 [Compound 3j] | 0.660 |  |  |  | Kinetic solubility (no value) ([3]; room temperature): –
CCC(CC)=NNc1cccc2c1S(=O)(=O)N(C)N=C2C [Compound 7b] | 0.625 |  |  |  | Kinetic solubility [3, 5]: 6.2 ± 0.3 µM
CC1=NN(C)S(=O)(=O)c2c(NN=C3CCCC3)cccc21 [Compound 7d] | 0.599 | 93.3 ± 0.2% | 7.6 ± 2.9 10^−6 cm/s | 46.9 ± 2.8 µM (≈ 14.4 µg/mL) | Papp at 4 h, 100 µM [2, 8]: < 10 ×10⁻⁶ cm/s; Papp at 4 h, 100 µM [2, 9]: < 10 ×10⁻⁶ cm/s; GI PAMPA membrane retention (MR) in words [2]: high; solubility kinetic at 2 h [3, 7]: > 30 µM; CLint scaled at 10 µM [4, 10]: 1.34 mL/h/kg; half-life at 10 µM ([4]; triplicate): 31 ± 3 min
CC1=NN(C)S(=O)(=O)c2c(NN=C3CCCCC3)cccc21 [Compound 7e, 8-(2-Cyclohexylidenehydrazino)-2,4-dimethyl-2H-1,2,3-benzothiadiazine 1,1-dioxide] | 0.626 | 97.5 ± 0.3% | 0.0 10^−6 cm/s | 86.3 ± 3.9 µM (≈ 27.7 µg/mL) | GI PAMPA membrane retention (MR) category ([2]; class in words): extremely high (extremely high above 90%); GI PAMPA permeability in words [2]: nearly zero; solubility kinetic at 2 h [3, 7]: > 30 µM
CCC(CC)=NNc1cccc2c1S(=O)(=O)N(C)N=C2c1ccccc1 [Compound 7g] | 0.677 |  |  |  | Kinetic solubility (no value) ([3]; room temperature): –
CC1=NN(C)S(=O)(=O)c2c1ccc1c2[nH]c2c3ccccc3ccc12 [Compound 10a] | 0.637 |  |  |  | Kinetic solubility (no value) ([3]; room temperature): –
CN1N=C(c2ccccc2)c2ccc3c([nH]c4c5ccccc5ccc34)c2S1(=O)=O [Compound 10b] | 0.685 |  |  |  | Kinetic solubility (no value) ([3]; room temperature): –
CCC=NNc1cccc2c1S(=O)(=O)N(C)N=C2c1ccccc1 [crude 7h] | 0.645 |  |  | 0.7 ± 0.02 µM (≈ 0.24 µg/mL) | 
